This note sets out measurements from PubChem BioAssay (NCI).

Some test systems named below: HCT-15 colon; HOP-92 NSCLC; HT29 colon; MOLT-4 leukemia; NCI-H23 lung; RXF 393 renal; HS 578T breast; MDA-MB-231 breast; SR leukemia.
Assay in all cases: growth of human tumour cells (NCI), 48 h

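In this assay, cells in 96-well plates receive the compound at five concentrations for 48 hours. Endpoints are linearly interpolated between the surrounding concentrations. GI50 = concentration required for 50% inhibition of growth. TGI: total growth inhibition.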

Take `CC1C[C@H](OC(N)=O)C(C)CC1=O` (some centres undefined): the TGI with HCT-15 colon, with HOP-92 NSCLC, in the experiment with HT29 colon, with MOLT-4 leukemia, with NCI-H23 lung and in the experiment with RXF 393 renal was over 100 µM each time.
With `CCNCC(=O)O[C@]1(CC)C(=O)OCc2c1cc1n(c2=O)Cc2cc3ccccc3nc2-1`, the TGI in the experiment on HCT-15 colon is over 100 µM; with HOP-92 NSCLC it was 13.8 µM; in the experiment on HS 578T breast, over 100 µM; in the experiment on HT29 colon, over 32.9 µM; in the experiment on MDA-MB-231 breast, 98 µM; in the experiment with MOLT-4 leukemia it was 0.159 µM. The TGI is 0.879 µM in the experiment on NCI-H23 lung, 1.74 µM in the experiment with RXF 393 renal and 0.0327 µM in the experiment on SR leukemia.
`CCOC(=O)N1CCc2cc(OC)c(OC)c3c2C1CC3=O` (centres undefined): the TGI in the experiment on HCT-15 colon, with HOP-92 NSCLC, in the experiment with HT29 colon, with MOLT-4 leukemia, with RXF 393 renal and in the experiment on SR leukemia was over 100 µM in each case.
For the molecule `Cc1ccc(NC(=O)c2cccc([N+](=O)[O-])c2O)c([N+](=O)[O-])c1`, the TGI with HCT-15 colon turned out to be 31.8 µM; in the experiment with HOP-92 NSCLC, 45.4 µM; in the experiment on HT29 colon it was 69.9 µM; in the experiment on NCI-H23 lung it was 27.6 µM; in the experiment on RXF 393 renal, 23.6 µM.
For the molecule `CSC(C1c2ccccc2N(C)C2=NC(=O)N(C)C(=O)C21Cl)S(=O)(=O)c1ccc(C)cc1` (centres undefined), the TGI in the experiment with HCT-15 colon is over 100 µM; in the experiment on HOP-92 NSCLC, 59.9 µM; in the experiment with HT29 colon, over 100 µM; in the experiment with MOLT-4 leukemia, 40.8 µM; in the experiment on NCI-H23 lung, 83.5 µM.
For `CC1=CC(=O)CCC2(C)C1CC[C@@H]2OC=O` (some centres undefined), the TGI with HOP-92 NSCLC, in the experiment on HT29 colon, in the experiment on MOLT-4 leukemia, in the experiment on NCI-H23 lung, in the experiment with RXF 393 renal and in the experiment with SR leukemia was over 100 µM in each case.
Turning to `CC(=O)C1CC=C(C)CC1` (centres undefined), the TGI in the experiment with HCT-15 colon, in the experiment on HOP-92 NSCLC, in the experiment on HT29 colon, with MOLT-4 leukemia, in the experiment with NCI-H23 lung and with RXF 393 renal was over 100 µM throughout. The same molecule yielded a TGI in the experiment on SR leukemia of over 100 µM.
As to `C=C/C=C(\NC(=O)C(Cl)(Cl)Cl)[Si](C)(C)C`, the TGI in the experiment with HCT-15 colon, in the experiment with HOP-92 NSCLC, in the experiment on HT29 colon, with MOLT-4 leukemia, with NCI-H23 lung and with RXF 393 renal was over 100 µM in each case. This molecule registered a TGI in the experiment with SR leukemia of over 100 µM.
Turning to `COC1(OC)CC2C=C(S(=O)(=O)c3ccccc3)C1N(Cc1ccccc1)C2=O` (centres undefined), the TGI in the experiment on HOP-92 NSCLC is 95.5 µM; in the experiment with HT29 colon it was 93.7 µM; in the experiment on MOLT-4 leukemia, over 100 µM; in the experiment with NCI-H23 lung, 40.5 µM; with RXF 393 renal it was 49.8 µM; in the experiment on SR leukemia, over 100 µM.
Consider `COc1cc2c(cc1OC)-c1cc3cc(OC)c(OC)cc3n1CC2`, for which the TGI in the experiment on HOP-92 NSCLC is over 100 µM; in the experiment with HT29 colon, 56.3 µM; in the experiment with MOLT-4 leukemia it was over 100 µM; in the experiment with NCI-H23 lung it was over 100 µM; in the experiment with SR leukemia, over 100 µM.
For the molecule `COc1ccc(/C(=N/NC(=O)NN)C(c2ccc(OC)cc2)C2(O)CNc3c(Cl)cc(Cl)cc32)cc1` (centres undefined), the TGI in the experiment with HCT-15 colon, in the experiment on HOP-92 NSCLC, with HT29 colon, with MOLT-4 leukemia, in the experiment with NCI-H23 lung and in the experiment on RXF 393 renal was over 100 µM throughout.
As to `CCn1cc(/C=C/C(C)c2cn(CC)c(=O)[nH]c2=O)c(=O)[nH]c1=O` (centres undefined), the TGI in the experiment on HCT-15 colon, in the experiment on HOP-92 NSCLC, in the experiment on HT29 colon, in the experiment with MOLT-4 leukemia, in the experiment with NCI-H23 lung and in the experiment on RXF 393 renal was over 100 µM in each case.
As for `CCCN(CCCC(NC(C)=O)C(=O)NCc1ccccc1)C(=O)NC` (centres undefined), the TGI in the experiment on HCT-15 colon, with HOP-92 NSCLC, in the experiment with HT29 colon, in the experiment with MOLT-4 leukemia, with NCI-H23 lung and with RXF 393 renal was over 100 µM throughout.
In the case of `N#CC(C(=O)/C(=N\Nc1nc(=S)[nH]n1N)C(C#N)c1ccc(Cl)cc1)c1ccc(Cl)cc1` (centres undefined), the TGI with HCT-15 colon, with HOP-92 NSCLC, with HT29 colon, in the experiment on NCI-H23 lung and with RXF 393 renal was over 100 µM each time.
Take `CN(C)c1ccc(C(=C2C=CC(=[N+](C)C)C=C2)c2ccc(N(C)C)cc2)cc1` (tested in a mixture with another compound): the GI50 was 0.294 µM in the experiment with HCT-15 colon; 0.0479 µM in the experiment on HS 578T breast; 0.0411 µM with HT29 colon; 0.205 µM in the experiment with MDA-MB-231 breast; 0.293 µM in the experiment on MOLT-4 leukemia; 0.108 µM in the experiment on RXF 393 renal. Also, the GI50 with SR leukemia was 0.0313 µM. Moreover, the TGI is 1.41 µM in the experiment with HCT-15 colon; 0.714 µM with HOP-92 NSCLC; 1.9 µM in the experiment on HS 578T breast; over 100 µM in the experiment on HT29 colon; 1.03 µM in the experiment on MDA-MB-231 breast; 5.67 µM with MOLT-4 leukemia. The TGI worked out at 0.871 µM with RXF 393 renal and 0.106 µM in the experiment with SR leukemia.
As for `COc1ccc(C(O)/C(=N\NC(N)=S)c2nc3ccc([N+](=O)[O-])cc3[nH]c2=O)cc1OC` (centres undefined), the TGI with HOP-92 NSCLC, in the experiment on HT29 colon, with MOLT-4 leukemia, in the experiment with NCI-H23 lung and in the experiment on RXF 393 renal was over 100 µM throughout.
In the case of `Cc1cc2c(=O)n(-c3ccc(F)cc3)c(C)nc2c(C(=O)O)c1C`, the TGI in the experiment on HCT-15 colon, in the experiment with HOP-92 NSCLC, with HT29 colon, in the experiment on MOLT-4 leukemia, in the experiment on NCI-H23 lung and with RXF 393 renal was over 100 µM in each case. The TGI with SR leukemia is over 100 µM.
As to `CC(=O)O/N=C/c1ncccc1OC(C)=O`, the TGI in the experiment on HCT-15 colon, in the experiment on HOP-92 NSCLC, in the experiment on HT29 colon, in the experiment on MOLT-4 leukemia, in the experiment with NCI-H23 lung and in the experiment with RXF 393 renal was over 100 µM in each case. The TGI in the experiment with SR leukemia was over 100 µM.
